Test results reported in patent US10017681B2, “Corrosion inhibitors” (RHODIA OPERATIONS, priority 2014, dated 2018).
Like-named read-outs stand apart in the source and are kept apart here. Marks after values point to notes of the source that are not given here.

Tests used:
[1] = 20 ppm active; 1500 rpm; 60° C., CO2
Experimental: An RCE film persistency test was carried out as follows: • A clean jacketed RCE corrosion cell was fitted with an auxiliary electrode, reference electrode, and gas sparge tube. • The cell was charged with 899.1 g of 5% NaCl brine. • The temperature of the circulator connected to the jacketed cell was set to 60° C. • A constant CO2 sparge of approx. 200 cm^3/min was passed through the brine in the RCE cell which was then left for 1 hour to reach equilibrium. • A C1018 mild steel coupon was washed in xylene and acetone to remove any vapour phase corrosion inhibitor and allowed to dry. • After the RCE cell reached equilibrium the mild steel coupon was connected to the RCE shaft and inserted into the RCE cell. • Isopar M 99.9 g was then carefully transferred into the cell so that it floated on top of the brine. (This is done at this stage to prevent the working electrode from becoming oil wet as a periscope is unavailable) • The rotator was turned on and set to 1500 rpm. • Baseline corrosion data was collected for approximately 2.5 hours. • During this time 2% (w/w active) stock solutions of samples 2 or 3 were made up in methanol.

[2] = Rotating Cylinder Electrode (RCE) film persistency test (4000 rpm); conditions: 20 ppm active, 60° C.
Experimental: An RCE film persistency test was carried out as follows: • A clean jacketed RCE corrosion cell was fitted with an, auxiliary electrode, reference electrode, and gas sparge tube. • The cell was charged with 899.1 g of 5% NaCl brine. • The temperature of the circulator connected to the jacketed cell was set to 60° C. • A constant CO2 sparge of approx. 200 cm^3/min was passed through the brine in the RCE cell which was then left for 1 hour to reach equilibrium. • A C1018 mild steel coupon was washed in xylene and acetone to remove any vapour phase corrosion inhibitor and allowed to dry. • After the RCE cell reached equilibrium the mild steel coupon was connected to the RCE shaft and inserted into the RCE cell. • Isopar M 99.9 g was then carefully transferred into the cell so that it floated on top of the brine. (This is done at this stage to prevent the working electrode from becoming oil wet as a periscope is unavailable) • The rotator was turned on and set to 4000 rpm. (NB. This is the fastest speed achievable using current available equipment.) • Baseline corrosion data was collected for approximately 2.5 hours. • During this time a 2% (w/w active) stock solution of Rhodafac ASI 80 was made up in methanol. • After the baseline corrosion data was collected the stock solution was injected into the RCE cell at a concentration of 20 ppm (w/w active). • The corrosion rate in the cell was recorded for at least a further 12.5 hours.

[3] = LPR (Linear Polarisation Resistance) bubble test, Example 2; conditions: 90/10 5% NaCl/Isopar M, 60° C., CO2
Experimental: (§1) Corrosion inhibition properties were screened using the LPR (Linear Polarisation Resistance) bubble test method and the film persistence of the surfactants was evaluated using a Rotating Cylinder Electrode (RCE). The conditions were the same in both tests.
(§2) A 90/10 brine (5% w/w NaCl) and Isopar M (C9-15 iso-paraffins) mixture at 60° C. was saturated with CO2. The electrodes were immersed in the brine and left for several hours to establish the base line corrosion rate before injecting the surfactant.
The corrosion rate at 15 hours was used to benchmark the efficacy of the formulations containing octyl phosphonic acid against a commercial corrosion inhibitor. Synergistic properties of the surfactant mixtures were identified by comparing them against the corrosion rates of the individual surfactants.
The surfactant ratios for the LPR/RCE measurements were 80/20 and 50/50 Cl/octyl phosphonic acid and compared against the individual surfactants.

[4] = RCE film persistence under high shear (4000 rpm), Example 2; conditions: high shear rates (4000 rpm)
Experimental: as §1, §2
A shear rate of 4000 rpm was used to simulate very high shear conditions in order to determine the film persistence properties of the surfactants.
The persistence of the surfactant corrosion inhibitor film was also assessed under high shear rates (4000 rpm).

[5] = Foam tendency (dynamic foam test, ASTM G170-06); format: physicochemical; conditions: 1000 ppm active; 50/50 v/v Isopar M and 5% NaCl, 25° C.
Experimental: Foam tendencies were investigated using the methods described in ASTM G170-06 (2012) ‘Standard Guide for Evaluating and Qualifying Oilfield and Refinery Corrosion Inhibitors in the Laboratory’.
A graduated dynamic foam test apparatus (1000 ml measuring cylinder) fitted with a No. 1 porosity gas sparge tube was used for the test. 1000 ppm of corrosion inhibitor was added to a 50/50 v/v brine (5% NaCl solution) and Isopar M mixture (200 ml) at ambient temperature (25° C.). The mixture was left for 10 minutes before immersing the sparge tube in the brine layer. Nitrogen gas (flow rate: 0.5 litre/min) was injected into the solution and the volume of foam produced was measured over a set period of time (10 minutes).
If the foam reached the 1000 ml mark (800 ml foam volume) before the 10 minutes had elapsed then the time taken for the foam to reach the 1000 ml mark (800 ml of foam) was recorded. The volume of foam produced after the allotted time was also recorded.
The foam persistence was determined by measuring the foam volume after 10 minutes.

[6] = Solubility of samples when making stock solutions; format: physicochemical; conditions: 2% (w/w active) stock solutions in methanol
[7] = Emulsion tendency (ASTM G-170); format: physicochemical; conditions: for Brine (ml) @ T = 30 mins / Isopar M (ml) @ T = 30 mins / Pad (ml) @ T = 30 mins / Emulsion Layer (%): 1000 ppm active, 50/50 v/v Isopar M and 5% NaCl, 25° C.; for Emulsion Layer (%): after 30 minutes
Experimental: The emulsification behaviours of the alkyl phosphonic acids were investigated using the standard test procedure, ASTM G-170. It will be appreciated that, in general, corrosion inhibition formulations which have a low tendency to form emulsions with hydrocarbons are preferred.
1000 ppm active corrosion inhibitor formulation was added to a 250 ml measuring cylinder containing 100 ml 50/50 v/v 5% NaCl and Isopar M respectively. The cylinder was sealed and shaken 100 times.
The mixture was allowed to rest and the emulsion and brine layer volumes were recorded. The brine, Isopar M and emulsion layers were measured at 5, 10 and 30 minutes respectively.

[8] = Dynamic surface tension (maximum bubble pressure method); format: physicochemical; conditions: 1000 ppm (as active) in 5% NaCl, 25° C., surface age 30 seconds
Experimental: Dynamic Surface Tension measurements were therefore carried out using a Messtechnik SITA T60 tensiometer for mixtures of the alkyl phosphonic acids with selected surfactants (anionic and amphoteric) in 5% NaCl.
These tests were carried out using the maximum bubble pressure method (see ‘Exploiting Surfactant Synergies in the Development of Foamers for Gas Well Deliqufication’, K Hatchman, C Jones, B Downward, G Collins, A Fellows, Proceedings of Chemistry In The Oil Industry XII, Royal Society of Chemistry, 2011).
The surface tensions were measured for 1000 ppm (as active) at a surface age of 30 seconds (equilibrium conditions) and ambient temperature (25° C.).

[9] = Bubble test (LPR), Example 1; conditions: on its own
Experimental: A bubble test was carried out as follows: • Clean corrosion cells were fitted with a stirring bar, auxiliary electrode, reference electrode, gas sparge tube, and glass periscope. • Each cell was charged with 999 g of the desired corrosion fluid. In this instance a 5% NaCl brine and Isopar M oil phase was used in a 9:1 ratio. • The cells were placed in a water bath set at 60° C. and set to stir at approximately 300 rpm. • Each cell was connected to a constant sparge of CO2 approx. 60 cm^3/min and then left for 1 hour to reach equilibrium. • C1018 mild steel coupons were washed with xylene and acetone to remove any vapour phase corrosion inhibitor and allowed to dry. • After the cells reached equilibrium the mild steel coupons were connected to the working electrodes and inserted into each cell using the glass periscopes to avoid getting the electrodes oil wet. • The LPR run was started and baseline corrosion data was collected for approximately 2.5 hours. • During this time 2% (w/w product) stock solutions of samples 1&2 were made up in deionised water.
The skilled reader will appreciate that the bubble test can only be used to evaluate if a product acts as a corrosion inhibitor and to rank corrosion inhibitors in order of effectiveness. […]

Row | Molecule | Average corrosion rate [bubble test] (mils/y) ([3]; 4 ppm) | Average corrosion rate [weight loss] (mils/y) ([3]; 4 ppm) | Effciency at T = 15 (%) ([3]; 4 ppm) | Average corrosion rate [bubble test] (mils/y) ([3]; 20 ppm) | Average corrosion rate [weight loss] (mils/y) ([3]; 20 ppm) | Effciency at T = 15 (%) ([3]; 20 ppm) | Average corrosion rate [bubble test] (mils/y) ([4]; 4 ppm) | Average corrosion rate [weight loss] (mils/y) ([4]; 4 ppm) | Effciency at T = 15 (%) ([4]; 4 ppm) | Average corrosion rate [bubble test] (mils/y) ([4]; 20 ppm) | Average corrosion rate [weight loss] (mils/y) ([4]; 20 ppm) | Effciency at T = 15 (%) ([4]; 20 ppm) | Foam Volume after 10 minutes [5] [mL] | Time to 1000 ml (secs) [5] | Brine (ml) @ T = 30 mins [7] [mL] | Isopar M (ml) @ T = 30 mins [7] | Pad (ml) @ T = 30 mins [7] [mL] | Emulsion Layer (%) [7] [%] | Surface tension at 30 second (mN/m) [8] | also measured
1 | CCCCCCCCP(=O)(O)O [Octyl Phosphonic Acid (80%), Octyl Phosphonic Acid] | 267.4 | 244.3 | 0 | 49.1 | 48.1 | greater than 95% | 267.4 | 244.3 | 0 | 49.1 | 48.1 | 96.3 | 0 | No foam | – | – | – | – | – | Average corrosion rate (RCE test) [1]: 61 mils/y; Average corrosion rate (Weight Loss) [1]: 56 mils/y; Efficiency at T = 15 [1]: 96%; Average corrosion rate (RCE test) ([2]; CO2): 89 mils/y; Average corrosion rate (Weight Loss) ([2]; CO2): 56 mils/y; Effciency at T = 15 ([2]; CO2): 93%; Effciency at T = 15 ([2]; CO2, listed as octylphosphonic acid): > 90%; Effciency at T = 15 (%) ([3]; 20 ppm, listed as OPA (80%)): 96.3%; solubility in methanol [6]: fully soluble in methanol
2 | CCCCCCCCCCCCP(=O)(O)O [Lauryl Phosphonic Acid (100%), Lauryl Phosphonic Acid] | 174.2 | 146.8 | 27.6 | 33.4 | 58.5 | 98.5% | 174.2 | 146.8 | 27.6 | 33.4 | 58.5 | 98.5 | 0 | No foam | 41 | 12** ml | 0 | 0 | – | observation on the hydrocarbon layer ([7]; emulsification test, footnote): **Lauryl phosphonic acid appears to gel the hydrocarbon, effectively reducing the phase separation rate of the different layers
3 | CCCCCCCCP(=O)(O)O [Octyl Phosphonic Acid] | – | – | – | – | – | – | – | – | – | – | – | – | – | – | – | – | – | – | 58.5* mN/m | –
4 | CCCCCCCCCCCCP(=O)(O)O [Lauryl Phosphonic Acid] | – | – | – | – | – | – | – | – | – | – | – | – | – | – | – | – | – | – | 38.8* mN/m | –
5 | CCCCCCCCP(=O)(O)O [Octyl Phosphonic Acid (100%)—OPA, Octyl Phosphonic Acid] | – | – | – | – | – | – | – | – | – | – | – | – | – | – | 50 | 50 mL | 0 | 0 | – | –
6 | ethylhexyl acid phosphate | – | – | – | – | – | – | – | – | – | – | – | – | – | – | – | – | – | – | – | corrosion inhibition properties [9]: no corrosion inhibition properties
